# Measured values published in patent US20080045564A1 (priority 2006, published 2008).
# Assays:
# [1] = test system: CYP2B6
# [2] = test system: human CYP1A1; settings: due to increased mRNA expression levels; Bapiro et al.; cited from earlier work
Compound,"induction of CYP2B6 by reference inducer ([1]; 1 mM Phenobarbital, each hepatocyte donor)","induction of CYP2B6 activity (statistical significance, summary over three donors) ([1]; hepatocytes)",induction of human CYP1A1 activity [2]
CCC1(c2ccccc2)C(=O)NC(=O)NC1=O [Phenobarbital],statistically significant amount of induction,,
"C=C[C@H]1C[N@@]2CC[C@H]1C[C@H]2[C@H](O)c1ccnc2ccc(OC)cc12 [quinine, cinchonan-9-ol, 6′-methoxy-, (8a,9R)-]",,an inducer,induced
